Assay results from article PMC5458211, “Mitochondrial VDAC1-based peptides: Attacking oncogenic properties in glioblastoma” (Oncotarget, 2017).

Test system: U-87MG intracranial xenograft tumors
Assay: U-87MG intracranial-orthotopic xenograft, tumor volume by MRI
Assay type: in vivo, human U-87MG in nude mice
Procedure: B. U-87MG cells (2×10^5) were incubated for 12 h with the indicated concentrations of DMSO, Retro-Tf-D-LP4 peptide (Pep), or Retro-Tf-D-LP4 encapsulated in PLGA nanoparticles (PLGA-Pep). Samples of Retro-Tf-D-LP4 encapsulated in PLGA nanoparticles were centrifuged (15000g, 5 min) to separate the supernatant (Sup), containing free peptide, and the pellet, containing encapsulated Retro-Tf-D-LP4 peptide. Cell death was analyzed by PI staining and FACS analysis. C. Graphical representation of the orthotopic animal experiment. D. MRI imaging of brains 29 days post-intravenal treatment start with DMSO (1.05%), Retro-Tf-D-LP4 (10 mg/kg) encapsulated in PLGA nanoparticles or Tf-D-Retro-LP4 peptide (10 mg/Kg), as described in Materials and Methods available online in Supplemental information. E. Calculated tumor volumes after 20 (dark grey bars) and 29 (light grey bars) days post-treatment start. Results = mean ± SE (n = 6) (* p<0.05, *** p<0.001). F. Kaplan-Meier survival curves showing statistically significant differences in survival curves between the PBS/DMSO and Retro-Tf-D-LP4 treated mice. Cumulative Kaplan-Meier survival curves of control mice (red line), Retro-Tf-D-LP4 peptide (10mg/kg) encapsulated in PGLA nanoparticles (black line, ** p=0.006) or Retro-Tf-D-LP4 peptide (10 mg/kg, pink line, *** p=0.0003). The arrow indicates the end of the peptide treatment (day 46).
For the intracranial-orthotopic xenograft mouse model, U-87MG cells (8×10^4) were engrafted into a nude mouse brain using a stereotactic device. Forty eight hours after surgery, mice were randomized into three groups (6 animals/group) and treated every third day with DMSO (1.44%), Retro-Tf-D-LP4 (10mg/Kg) or Retro-Tf-D-LP4 (10mg/Kg) encapsulated by PLGA. Mice were subjected to MRI, sacrificed; brains were excised and processed for IHC. Tumor volume was analyzed using VivoQuant 2.10 software.
PLGA encapsulation of the VDAC1-based minutes using an UltraMicroPump III (World Precision peptide Retro-Tf-D-LP4 Instruments, Sarasota, FL). After infusion, the needle was left in place for 1 minute before slow withdrawal. The burr […]
100% DMSO and then diluted 20-fold with sterile DDW into three groups (6 animals/group) and treated every to reach a concentration of 25 mg/ml in a final DMSO third day with DMSO (1.44%), Retro-Tf-D-LP4 (10 concentration of 5%. PLGA (50 mg) was dissolved in mg/kg) or Retro-Tf-D-LP4 (10 mg/kg) encapsulated by acetone (1 ml). […] Tumor volume was analyzed using VivoQuant 2.10 10 ml of aqueous solution containing 1% PVA (w/v). […]
of the experiments, the mice were sacrificed, tumors were IHC of tumor tissue sections excised and ex vivo weight was determined. […]

Compound: CC[C@H](C)[C@H](NC(=O)[C@H](Cc1ccc(O)cc1)NC(=O)[C@@H]1CCCN1C(=O)[C@H](CCCNC(=N)N)NC(=O)[C@H](Cc1c[nH]cn1)NC(=O)[C@H](CO)NC(=O)[C@H](Cc1c[nH]c2ccccc12)NC(=O)[C@@H](NC(=O)[C@H](Cc1c[nH]c2ccccc12)NC(=O)[C@H](CCC(=O)O)NC(=O)[C@@H](CCCCN)NC(=O)[C@@H](CCCCN)NC(=O)[C@@H](CC(C)C)NC(=O)[C@@H](CCC(=O)O)NC(=O)[C@H](NC(=O)[C@@H](C)NC(=O)[C@H](NC(=O)[C@@H](CC(N)=O)NC(=O)[C@@H](CC(C)C)NC(=O)[C@@H](C)NC(=O)[C@@H](Cc1c[nH]c2ccccc12)NC(=O)[C@H](NC(=O)[C@@H](C)NC(=O)CNC(=O)[C@@H](CC(N)=O)NC(=O)[C@@H](CO)NC(=O)[C@@H](CC(N)=O)NC(=O)[C@H](CCCCN)NC(=O)[C@H](Cc1c[nH]c2ccccc12)NC(=O)[C@@H](NC(=O)[C@H](Cc1c[nH]c2ccccc12)NC(=O)[C@@H](N)CCCCN)[C@@H](C)O)[C@H](C)O)C(C)C)[C@H](C)O)[C@@H](C)O)C(=O)N[C@@H](C)C(=O)N[C@@H](Cc1c[nH]cn1)C(=O)O [Retro-Tf-D-LP4]
- decrease in orthotopic xenograft tumor volume, day 20 (10 mg/kg i.v., every third day, 20 days after start of treatment, MRI, n = 6): 60%
- decrease in orthotopic xenograft tumor volume, day 29 (10 mg/kg i.v., every third day, 29 days after start of treatment, MRI, n = 6): 90%
- free vs PLGA-encapsulated peptide, effectiveness (intracranial model, tumor size and survival): more effective both in reducing tumor size and in prolonging mice survival
- reduction of tumor volume, maximum (Discussion) (intracranial-orthotopic xenograft, i.v., free peptide): up to 90%
